From patent EP4635500A1, “THERAPEUTIC AGENT FOR BACTERIAL INFECTION” (Sumitomo Pharma Co., Ltd., priority 2022, dated 2024)
Read-outs that look alike come from different tables or passages of the source.

How the values were obtained:
A. baumannii = test: MIC, broth microdilution, CDC/FDA Antibiotic Resistance Isolate Bank (Example 7, Tables 9, 13, 14); type: cell-based, Acinetobacter baumannii; conditions: for MIC: read-out: MIC
Enterobacterales = test: MIC, broth microdilution, CDC/FDA Antibiotic Resistance Isolate Bank (Example 7, Tables 8, 11, 12); type: cell-based; conditions: for MIC: read-out: MIC
[1] = MIC distribution, metallo-β-lactamase-producing A. baumannii, inhibitor µg/mL in parentheses

O=C(O)c1cn(C2CC2)c2cc(N3CCNCC3)c(F)cc2c1=O [Ciprofloxacin, ciprofloxacin]
1 µg/mL: MIC (Enterobacterales; Klebsiella aerogenes, Enterobacter aerogenes, KUB No. 5777, AR Bank # 431) | MIC (Enterobacterales; Kluyvera ascorbata, KUB No. 5641, AR Bank # 144) | MIC (Enterobacterales; Proteus mirabilis, KUB No. 5656, AR Bank # 159) | MIC (Enterobacterales; Serratia marcescens, Serratia marcescens KUB No. 5822, AR Bank #517) | MIC (Enterobacterales; Serratia marcescens, Serratia marcescens KUB No. 5825, AR Bank #520)
8 µg/mL: MIC (A. baumannii; Acinetobacter baumannii, A. baumannii KUB No. 5567, AR Bank #70, OXA-58, OXA-100) | MIC (A. baumannii; Acinetobacter baumannii, KUB No. 5745, AR Bank #312) | MIC (Enterobacterales; Klebsiella pneumoniae, KUB No. 5614, AR Bank # 117)
4 µg/mL: MIC (Enterobacterales; Klebsiella pneumoniae, KUB No. 5540, AR Bank# 43) | MIC (Enterobacterales; Klebsiella pneumoniae, Klebsiella pneumoniae KUB No. 5828, AR Bank #523) | MIC (Enterobacterales; Proteus mirabilis, KUB No. 5653, AR Bank # 156) | MIC (Enterobacterales; Proteus mirabilis, KUB No. 5775, AR Bank # 379)
≤ 0.03 µg/mL: MIC (Enterobacterales; Escherichia coli, KUB No. 5558, AR Bank # 61) | MIC (Enterobacterales; Escherichia coli, KUB No. 5574, AR Bank # 77) | MIC (Enterobacterales; Escherichia coli, KUB No. 5586, AR Bank # 89) | MIC (Enterobacterales; Escherichia coli, KUB No. 5764, AR Bank # 368) | MIC (Enterobacterales; Klebsiella oxytoca, KUB No. 5644, AR Bank # 147) | MIC (Enterobacterales; Klebsiella oxytoca, KUB No. 5771, AR Bank # 375)
> 64 µg/mL: MIC (A. baumannii; Acinetobacter baumannii, A. baumannii KUB No. 5575, AR Bank #78, OXA-71) | MIC (A. baumannii; Acinetobacter baumannii, A. baumannii KUB No. 5598, AR Bank #101, OXA-24, OXA-65) | MIC (A. baumannii; Acinetobacter baumannii, A. baumannii KUB No. 5706, AR Bank #273, OXA-23, OXA-66) | MIC (A. baumannii; Acinetobacter baumannii, A. baumannii KUB No. 5707, AR Bank #274, OXA-66, OXA-72) | MIC (A. baumannii; Acinetobacter baumannii, A. baumannii KUB No. 5710, AR Bank #277, OXA-24, OXA-65) | MIC (A. baumannii; Acinetobacter baumannii, A. baumannii KUB No. 5713, AR Bank #280, OXA-66) | MIC (A. baumannii; Acinetobacter baumannii, A. baumannii KUB No. 5718, AR Bank #285, OXA-24, OXA-65) | MIC (A. baumannii; Acinetobacter baumannii, KUB No. 5721, AR Bank #288) | MIC (A. baumannii; Acinetobacter baumannii, KUB No. 5722, AR Bank #259) | MIC (A. baumannii; Acinetobacter baumannii, KUB No. 5724, AR Bank #291) | MIC (A. baumannii; Acinetobacter baumannii, KUB No. 5727, AR Bank #294) | MIC (A. baumannii; Acinetobacter baumannii, KUB No. 5728, AR Bank #295) | MIC (A. baumannii; Acinetobacter baumannii, KUB No. 5729, AR Bank #296) | MIC (A. baumannii; Acinetobacter baumannii, KUB No. 5730, AR Bank #297) | MIC (A. baumannii; Acinetobacter baumannii, KUB No. 5732, AR Bank #299) | MIC (A. baumannii; Acinetobacter baumannii, KUB No. 5733, AR Bank #300) | MIC (A. baumannii; Acinetobacter baumannii, KUB No. 5734, AR Bank #301) | MIC (A. baumannii; Acinetobacter baumannii, KUB No. 5735, AR Bank #302) | MIC (A. baumannii; Acinetobacter baumannii, KUB No. 5737, AR Bank #304) | MIC (A. baumannii; Acinetobacter baumannii, KUB No. 5738, AR Bank #305) | MIC (A. baumannii; Acinetobacter baumannii, KUB No. 5739, AR Bank #306) | MIC (A. baumannii; Acinetobacter baumannii, KUB No. 5741, AR Bank #308) | MIC (A. baumannii; Acinetobacter baumannii, KUB No. 5742, AR Bank #309) | MIC (A. baumannii; Acinetobacter baumannii, KUB No. 5743, AR Bank #310) | MIC80 (A. baumannii; Acinetobacter baumannii, 55 isolates of A. baumannii, read-out: MIC80) | MIC90 (A. baumannii; Acinetobacter baumannii, 55 isolates of A. baumannii, read-out: MIC90) | MIC80 (Enterobacterales; 154 strains of Enterobacterales, read-out: MIC80) | MIC90 (Enterobacterales; 154 strains of Enterobacterales, read-out: MIC90) | MIC (Enterobacterales; Citrobacter freundii, KUB No. 5654, AR Bank # 157) | MIC (Enterobacterales; Escherichia coli, Escherichia coli KUB No. 5783, AR Bank #437) | MIC (Enterobacterales; Escherichia coli, Escherichia coli KUB No. 5796, AR Bank #452) | MIC (Enterobacterales; Escherichia coli, KUB No. 5552, AR Bank# 55) | MIC (Enterobacterales; Escherichia coli, KUB No. 5564, AR Bank # 67) | MIC (Enterobacterales; Escherichia coli, KUB No. 5582, AR Bank # 85) | MIC (Enterobacterales; Escherichia coli, KUB No. 5616, AR Bank # 119) | MIC (Enterobacterales; Escherichia coli, KUB No. 5634, AR Bank # 137) | MIC (Enterobacterales; Escherichia coli, KUB No. 5766, AR Bank # 370) | MIC (Enterobacterales; Escherichia coli, KUB No. 5768, AR Bank # 372) | MIC (Enterobacterales; Escherichia coli, KUB No. 5770, AR Bank # 374) | MIC (Enterobacterales; Escherichia, KUB No. 57, AR Bank # 436 (row cut off)) | MIC (Enterobacterales; Klebsiella ozaenae, KUB No. 5548, AR Bank# 51) | MIC (Enterobacterales; Klebsiella pnemnonine, KUB No. 5758, AR Bank # 362) | MIC (Enterobacterales; Klebsiella pneumoniae, KUB No. 55, AR Bank# 47) | MIC (Enterobacterales; Klebsiella pneumoniae, KUB No. 5537, AR Bank# 40) | MIC (Enterobacterales; Klebsiella pneumoniae, KUB No. 5541, AR Bank# 44) | MIC (Enterobacterales; Klebsiella pneumoniae, KUB No. 5543, AR Bank# 46) | MIC (Enterobacterales; Klebsiella pneumoniae, KUB No. 5546, AR Bank# 49) | MIC (Enterobacterales; Klebsiella pneumoniae, KUB No. 5563, AR Bank # 66) | MIC (Enterobacterales; Klebsiella pneumoniae, KUB No. 5565, AR Bank # 68) | MIC (Enterobacterales; Klebsiella pneumoniae, KUB No. 5572, AR Bank # 75) | MIC (Enterobacterales; Klebsiella pneumoniae, KUB No. 5576, AR Bank # 79) | MIC (Enterobacterales; Klebsiella pneumoniae, KUB No. 5584, AR Bank # 87) | MIC (Enterobacterales; Klebsiella pneumoniae, KUB No. 5594, AR Bank # 97) | MIC (Enterobacterales; Klebsiella pneumoniae, KUB No. 5595, AR Bank # 98) | MIC (Enterobacterales; Klebsiella pneumoniae, KUB No. 5603, AR Bank # 106) | MIC (Enterobacterales; Klebsiella pneumoniae, KUB No. 5604, AR Bank # 107) | MIC (Enterobacterales; Klebsiella pneumoniae, KUB No. 5606, AR Bank # 109) | MIC (Enterobacterales; Klebsiella pneumoniae, KUB No. 5617, AR Bank # 120) | MIC (Enterobacterales; Klebsiella pneumoniae, KUB No. 5622, AR Bank # 125) | MIC (Enterobacterales; Klebsiella pneumoniae, KUB No. 5626, AR Bank # 129) | MIC (Enterobacterales; Klebsiella pneumoniae, KUB No. 5635, AR Bank # 138) | MIC (Enterobacterales; Klebsiella pneumoniae, KUB No. 5637, AR Bank # 140) | MIC (Enterobacterales; Klebsiella pneumoniae, KUB No. 5638, AR Bank # 141) | MIC (Enterobacterales; Klebsiella pneumoniae, KUB No. 5643, AR Bank # 146) | MIC (Enterobacterales; Klebsiella pneumoniae, KUB No. 5645, AR Bank # 148) | MIC (Enterobacterales; Klebsiella pneumoniae, KUB No. 5650, AR Bank # 153) | MIC (Enterobacterales; Klebsiella pneumoniae, KUB No. 5757, AR Bank # 361) | MIC (Enterobacterales; Klebsiella pneumoniae, KUB No. 5760, AR Bank # 364) | MIC (Enterobacterales; Klebsiella pneumoniae, Klebsiella pneumoniae KUB No. 5784, AR Bank #438) | MIC (Enterobacterales; Klebsiella pneumoniae, Klebsiella pneumoniae KUB No. 5797, AR Bank #453) | MIC (Enterobacterales; Klebsiella pneumoniae, Klebsiella pneumoniae KUB No. 5812, AR Bank #507) | MIC (Enterobacterales; Klebsiella pneumoniae, Klebsiella pneumoniae KUB No. 5830, AR Bank #525) | MIC (Enterobacterales; Morganella morganii, KUB No. 5554, AR Bank# 57) | MIC (Enterobacterales; Proteus mirabilis, KUB No. 5652, AR Bank # 155)
1: Number of isolates at MIC 16 µg/mL (A. baumannii; [1]) | Number of isolates at MIC 32 µg/mL (A. baumannii; [1]) | Number of isolates at MIC >32 µg/mL (A. baumannii; [1]) | Number of isolates at MIC >64 µg/mL (A. baumannii; [1])
0.06 µg/mL: MIC (Enterobacterales; Escherichia coli, Escherichia coli KUB No. 5794, AR Bank #450) | MIC (Enterobacterales; Escherichia coli, KUB No. 5566, AR Bank # 69) | MIC (Enterobacterales; Escherichia coli, KUB No. 5765, AR Bank # 369) | MIC (Enterobacterales; Klebsiella aerogenes, Enterobacter aerogenes, KUB No. 5571, AR Bank # 74) | MIC (Enterobacterales; Klebsiella aerogenes, Enterobacter aerogenes, KUB No. 5658, AR Bank # 161) | MIC (Enterobacterales; Klebsiella pneumoniae, KUB No. 5657, AR Bank # 160) | MIC (Enterobacterales; Morganella morganii, Morganella morganii KUB No. 5824, AR Bank #519) | MIC (Enterobacterales; Providencia rettgeri, KUB No. 5579, AR Bank # 82) | MIC (Enterobacterales; Serratia marcescens, KUB No. 5588, AR Bank # 91) | MIC (Enterobacterales; Serratia marcescens, KUB No. 5596, AR Bank # 99) | MIC (Enterobacterales; Serratia marcescens, KUB No. 5618, AR Bank # 121) | MIC (Enterobacterales; Serratia marcescens, KUB No. 5619, AR Bank # 122) | MIC (Enterobacterales; Serratia marcescens, KUB No. 5620, AR Bank # 123) | MIC (Enterobacterales; Serratia marcescens, KUB No. 5621, AR Bank # 124) | MIC (Enterobacterales; Serratia marcescens, KUB No. 5627, AR Bank # 130) | MIC (Enterobacterales; Serratia marcescens, KUB No. 5628, AR Bank # 131)
0.5 µg/mL: MIC (Enterobacterales; Klebsiella pneumoniae, KUB No. 5531, AR Bank# 34) | MIC (Enterobacterales; Klebsiella pneumoniae, KUB No. 5573, AR Bank # 76) | MIC (Enterobacterales; Klebsiella pneumoniae, Klebsiella pneumoniae KUB No. 5810, AR Bank #505)
2 µg/mL: MIC (Enterobacterales; Klebsiella aerogenes, Enterobacter aerogenes, KUB No. 5559, AR Bank # 62) | MIC (Enterobacterales; Klebsiella pneumoniae, Klebsiella pneumoniae KUB No. 5809, AR Bank #504) | MIC (Enterobacterales; Klebsiella pneumoniae, Klebsiella pneumoniae KUB No. 5811, AR Bank #506)
